# Columns and labels:
# [1] = system: KB-8511 (drug-resistant, P-glycoprotein [Pgp] overexpressing) cells; test: Inhibition of cell growth of drug-resistant KB-8511 cells (methylene blue staining, 4 days); assay type: cell-based, Human; settings: 5760 min
# Method: The KB-8511 cells are kept as stock in the presence of 10 ng/ml of the antineoplastically active substance Colcemid (demecolcine). […] The plates are then incubated under the conditions mentioned above for 4 days. […] After washing, the dye is eluted with 3% (w/v) aqueous hydrochloric acid. The optical density (OD) per well, which is directly proportional to the number of cells, is then measured with a photometer at 665 nm. The IC50 values are calculated by means of a computer system, using the formula
# [2] = system: human parental drug-sensitive KB-31 tumours; test: In vivo antitumour activity against drug-sensitive KB-31 tumours in nude mice; design: species or system female Balb/c nude mice; settings: KB-31 tumour
# Method: (§1) The determination of the in vivo antitumour activity of test substance B (=N-benzoyl-6-benzyl-staurosporin) against the drug-sensitive parental KB-31 and a multidrug-resistant variant of the KB-31, i.e. the multidrug-resistant variant KB-8511, tumours is carried out in female Balb/c nude mice (Bomholdgaard, Copenhagen, Denmark) bearing serially passaged (minimum of three consecutive transplantations) either the human parental drug-sensitive KB-31 tumours or the human KB-8511 tumours. The KB-8511 tumours overexpress Pgb, the product of the mdr-1 gene (S. Akiyma et al., "Isolation and genetic characterization of human KB cell lines resistant to multiple drug", Somatic Cell and Mol. Gen. 11, 117-126 [1985]). Tumour fragments of approximately 25 mg are transplanted into the left flank of each animal (n=6 per group). […] Tumour growth is monitored twice weekly by measuring perpendicular diameters. Tumour volumes are determined as described by T. Meyer et al., Int. J. Cancer 43, 851-856 (1989), and expressed as relative tumour size (i.e. the increase in tumour volume compared with the tumour volume at the start of the treatment).
# human KB-8511 tumours = test: In vivo antitumour activity against multidrug-resistant KB-8511 tumours in nude mice; design: species or system female Balb/c nude mice; settings: for T/C [%] (median tumour volumes treated versus control): KB-8511 tumour
# Method: as §1
structure (smiles),measurement,setting,value
"CC[C@]1(O)C[C@@H]2CN(CCc3c([nH]c4ccccc34)[C@@](C(=O)OC)(c3cc4c(cc3OC)N(C)[C@H]3[C@@](O)(C(=O)OC)[C@H](OC(C)=O)[C@]5(CC)C=CCN6CC[C@]43[C@@H]65)C2)C1 [A, vinblastine]",% growth of KB 8511 cells,[1]; A 2.34 ng/ml alone,101%
same,% growth of KB 8511 cells,[1]; A 4.69 ng/ml alone,101%
same,% growth of KB 8511 cells,[1]; A 9.38 ng/ml alone,98%
same,% growth of KB 8511 cells,[1]; A 18.8 ng/ml alone,98%
same,% growth of KB 8511 cells,[1]; A 37.5 ng/ml alone,98%
same,% growth of KB 8511 cells,[1]; A 75.0 ng/ml alone,90%
same,% growth of KB 8511 cells,[1]; A 150 ng/ml alone,66%
same,% growth of KB 8511 cells,[1]; A 300 ng/ml alone,14%
"CO[C@@H]1[C@H](N(C)C(=O)c2ccccc2)C[C@H]2O[C@]1(C)n1c3ccccc3c3c4c(c5c6ccccc6n2c5c31)C(=O)N(Cc1ccccc1)C4 [B, N-benzoyl-6-benzyl-staurosporin]",% growth of KB 8511 cells,[1]; B 0.1 μmol alone,92%
same,% growth of KB 8511 cells,[1]; B 1 μmol alone (Example 10),95%
same,% growth of KB 8511 cells,[1]; B 1 μmol alone (Example 11),82%
same,T/C [%] (median tumour volumes treated versus control),[2]; 1 × 25 mg/kg p.o.,91%
same,Sensitisation of KB-8511 tumours to adriamycin,human KB-8511 tumours; 25 mg/kg p.o. 4 hours prior to adriamycin 9.0 mg/kg i.v.,sensitises the multi-drug resistant KB-8511 tumours to adriamycin
same,T/C [%] (median tumour volumes treated versus control),human KB-8511 tumours; 1 × 25 mg/kg p.o.,93%
"COc1cccc2c1C(=O)c1c(O)c3c(c(O)c1C2=O)C[C@@](O)(C(=O)CO)C[C@@H]3O[C@H]1C[C@H](N)[C@H](O)[C@H](C)O1 [C, adriamycin]",T/C [%] (median tumour volumes treated versus control),[2]; 1 × 9 mg/kg i.v.,13%
same,Maximal tumour regression,"[2]; adriamycin 1×9 mg/kg i.v. alone, on day 5",24%
same,T/C [%] (median tumour volumes treated versus control),human KB-8511 tumours; 1 × 9 mg/kg i.v.,89%

# — US5827846A, “Carbazole derivatives as agents against multi-drug resistance” (Novartis Corp., priority 1994, dated 1998)
